Data from US7053175B1, “Synthetic peptides useful in biological assays for detecting infections caused by group O HIV-1 viruses” (Bio-Rad Pasteur, priority 1997, dated 2006).
No end group written: not given here.

Key:
[1] = test system: sera from patients infected with group O HIV-1 retroviruses; experiment: Immunoenzymatic test of compositions containing peptides (Example 4); format: binding, human; set-up: key: >: signal greater than the reading capacity of the spectrophotometer; conditions: single peptide 2 μg/ml or composition 1 μg/ml + 1 μg/ml
Experimental: For this test, the procedure was carried out according to the protocol described in Example 2 and the same sera were used. The microplates used were sensitized either with peptide No. 1 (2B) cyclized, or with peptide No. 3 (4B) cyclized, or with a composition containing these two peptides (1:1 w/w). Into each well, there were deposited either 100 μl of a solution containing 2 μg/ml of peptide No. 1 (2B), or 100 μl of a solution containing 2 μg/ml of peptide No. 3 (4B), or 100 μl of a solution containing 1 μg/ml of peptide No. 1 (2B) and 1 μg/ml of peptide No. 3 (4B).

[2] = test system: serum samples from patients infected with group O HIV-1 retroviruses; experiment: Immunoenzymatic test: Test No. 2 (immunoreactivity with diluted sera); format: binding, human; conditions: solid phase peptide 2 μg/ml; for Number of samples: sera of Table V; for ABSORBANCE (OD): cyclized
Excerpt: The serum samples from patients infected with group O HIV-1 retroviruses were obtained by the Yaounde Pasteur Centre in Cameroon and were serotyped group O according to the serological algorithm described in AIDS (1977), 11, pp. 445-453. A genotyped sample (Maryland) is obtained from the United States. These samples were previously diluted in negative human serum at the dilutions given in Table V, in order to have a sufficient volume for the different immunoreactivity tests.
The synthetic peptides used were dissolved in water at a concentration of 1 mg/ml (stock solution). For the solid phase sensitization step (“coating”), the procedure was carried out as described for Example 2.
The serum samples were diluted 1/5 with a skimmed milk solution (citrate buffer supplemented with 0.01% of phenol red, 0.25% of chloroform and 0.25% of Kathon®), deposited in the wells of plates and incubated for 30 min at 40° C.
After washing with a Tris-NaCl buffer solution pH 7.4 containing 0.1% of Tween® 20 and 0.001% of sodium merthiolate, 100 μl of a solution of conjugate consisting of horseradish peroxidase-labelled anti-human IgG and IgM goat antibodies, containing as preservative 0.01% of sodium merthiolate, in solution in a citrate buffer solution supplemented with 30% glycerol and 25% normal foetal calf serum, were added to each well of the plates and then they were incubated for 30 min at 40° C.
After washing with a Tris-NaCl buffer solution pH 7.4 containing 0.1% of Tween® 20 and 0.001% of sodium merthiolate, the colour was developed as described in Example 2.
The relative absorbance (OD) (A490-A620) read in each well is proportional to the immunoreactivity of each peptide. It indicates the ability of each peptide to react with the biological sample with which the test is carried out.
The reactivity of the peptides of the invention, peptides No. 10 (14B), No. 11 (18B), No. 12 (19B), No. 14 (21B), No. 15 (22B), No. 16 (23B) all in cyclized form, was compared with that of three homologous synthetic peptides having, as sequence, a portion of the natural sequence of the envelope (env) of a group O HIV-1 retrovirus. These peptides are two peptides derived from the VAU isolate—the peptide VAU 22 AA and the peptide VAU 35 AA—and the peptide MVP 5180 (designated “MVP 5180” in Table V). The peptides VAU 22 AA and VAU 35 AA (whose structure is indicated in Example 2) and the peptide MVP 5180 comprise an immunodominant epitope of gp41.
All these peptides were used in cyclized form. The sequence of the MVP 5180 peptide is the following:
For each peptide tested, the samples were arranged into four classes (a, b, c and d) corresponding to various levels of relative absorbance read at the wavelengths A492-A620: • for a: OD<0.100, • for b: 0.100<OD<0.500, • for c: 0.500<OD<1.000, • for d: OD>1.000, thus making it possible to evaluate the degree of immunoreactivity of the peptides.

## LLSLWGCRGKAVCYTSVQWNET [PEPTIDE No. 1 (2B)]
[1]; serum 1062
  ABSORBANCE: >
[1]; serum 1702
  ABSORBANCE: 1.016
[1]; serum 1754
  ABSORBANCE: >
[1]; serum 2294
  ABSORBANCE: 0.447
[1]; serum 2352
  ABSORBANCE: 0.205
[1]; serum 2551
  ABSORBANCE: >
[1]; serum 2700
  ABSORBANCE: >
[1]; serum 3016
  ABSORBANCE: 0.243
[1]; serum 3136 (listed twice)
  ABSORBANCE: 0.302
[1]; serum 3235
  ABSORBANCE: >
[1]; serum 3302
  ABSORBANCE: 0.386
[1]; serum 3482
  ABSORBANCE: 1.473
[1]; serum 3600
  ABSORBANCE: 2.743
[1]; serum 3627
  ABSORBANCE: 2.910
[1]; serum 3771
  ABSORBANCE: 0.544
[1]; serum 3891
  ABSORBANCE: 2.780
[1]; serum 3935
  ABSORBANCE: 0.307
[1]; serum 4477*
  ABSORBANCE: >
[1]; serum 4489
  ABSORBANCE: >
[1]; serum 5149
  ABSORBANCE: >
[1]; serum 5270
  ABSORBANCE: >
[1]; serum 5931
  ABSORBANCE: >
[1]; serum 6165
  ABSORBANCE: 2.714
[1]; serum 6198
  ABSORBANCE: >
[1]; serum 6627
  ABSORBANCE: >
[1]; serum 6697
  ABSORBANCE: >
[1]; serum 6891
  ABSORBANCE: 0.062
[1]; serum 6976
  ABSORBANCE: >
[1]; serum 6998
  ABSORBANCE: >
[1]; serum 7258
  ABSORBANCE: 2.477
[1]; serum 7443
  ABSORBANCE: >

## LLSSWGCKGRLVCYTSVQWNET [PEPTIDE No. 3 (4B)]
[1]; serum 1062
  ABSORBANCE: >
[1]; serum 1702
  ABSORBANCE: >
[1]; serum 1754
  ABSORBANCE: >
[1]; serum 2294
  ABSORBANCE: >
[1]; serum 2352
  ABSORBANCE: >
[1]; serum 2551
  ABSORBANCE: >
[1]; serum 2700
  ABSORBANCE: >
[1]; serum 3016
  ABSORBANCE: >
[1]; serum 3136 (listed twice)
  ABSORBANCE: >
[1]; serum 3235
  ABSORBANCE: >
[1]; serum 3302
  ABSORBANCE: >
[1]; serum 3482
  ABSORBANCE: >
[1]; serum 3600
  ABSORBANCE: >
[1]; serum 3627
  ABSORBANCE: >
[1]; serum 3771
  ABSORBANCE: >
[1]; serum 3891
  ABSORBANCE: >
[1]; serum 3935
  ABSORBANCE: >
[1]; serum 4477*
  ABSORBANCE: >
[1]; serum 4489
  ABSORBANCE: >
[1]; serum 5149
  ABSORBANCE: >
[1]; serum 5270
  ABSORBANCE: >
[1]; serum 5931
  ABSORBANCE: >
[1]; serum 6165
  ABSORBANCE: >
[1]; serum 6198
  ABSORBANCE: >
[1]; serum 6627
  ABSORBANCE: >
[1]; serum 6697
  ABSORBANCE: >
[1]; serum 6891
  ABSORBANCE: >
[1]; serum 6976
  ABSORBANCE: >
[1]; serum 6998
  ABSORBANCE: >
[1]; serum 7258
  ABSORBANCE: >
[1]; serum 7443
  ABSORBANCE: >

## LLNLWGCKNRAICYTSVKWNKT (cysteine pairing not given here) [VAU 22 AA, reference compound]
[2]; CLASS A (a: OD<0.100)
  Number of samples: 7
[2]; CLASS B (b: 0.100<OD<0.500)
  Number of samples: 7
[2]; CLASS C (c: 0.500<OD<1.000)
  Number of samples: 0
[2]; CLASS D (d: OD>1.000)
  Number of samples: 0
[2]; serum 258 OUDI at 1/100
  ABSORBANCE (OD): 0.100
[2]; serum 625 at 1/50
  ABSORBANCE (OD): 0.165
[2]; serum 3600 at 1/100
  ABSORBANCE (OD): 0.058
[2]; serum 3613 at ¼00
  ABSORBANCE (OD): 0.396
[2]; serum 3653 at 1/10
  ABSORBANCE (OD): 0.310
[2]; serum 4280 at 1/50
  ABSORBANCE (OD): 0.021
[2]; serum 6111 at 1/100
  ABSORBANCE (OD): 0.180
[2]; serum DJOU at 1/100
  ABSORBANCE (OD): 0.042
[2]; serum DO15 at 1/100
  ABSORBANCE (OD): 0.075
[2]; serum MBASSI at 1/100
  ABSORBANCE (OD): 0.257
[2]; serum Maryland at ¼00
  ABSORBANCE (OD): 0.168
[2]; serum NGO at 1/50
  ABSORBANCE (OD): 0.040
[2]; serum NJEM at 1/100
  ABSORBANCE (OD): 0.024
[2]; serum WANG at 1/50
  ABSORBANCE (OD): 0.041

## RLLALETFIEENELLNLWGCKNRAICYTSVKWNKT (cysteine pairing not given here) [VAU 35 AA, reference compound]
[2]; CLASS A (a: OD<0.100)
  Number of samples: 11
[2]; CLASS B (b: 0.100<OD<0.500)
  Number of samples: 3
[2]; CLASS C (c: 0.500<OD<1.000)
  Number of samples: 0
[2]; CLASS D (d: OD>1.000)
  Number of samples: 0
[2]; serum 258 OUDI at 1/100
  ABSORBANCE (OD): 0.058
[2]; serum 625 at 1/50
  ABSORBANCE (OD): 0.069
[2]; serum 3600 at 1/100
  ABSORBANCE (OD): 0.025
[2]; serum 3613 at ¼00
  ABSORBANCE (OD): 0.250
[2]; serum 3653 at 1/10
  ABSORBANCE (OD): 0.021
[2]; serum 4280 at 1/50
  ABSORBANCE (OD): 0.013
[2]; serum 6111 at 1/100
  ABSORBANCE (OD): 0.087
[2]; serum DJOU at 1/100
  ABSORBANCE (OD): 0.022
[2]; serum DO15 at 1/100
  ABSORBANCE (OD): 0.036
[2]; serum MBASSI at 1/100
  ABSORBANCE (OD): 0.120
[2]; serum Maryland at ¼00
  ABSORBANCE (OD): 0.054
[2]; serum NGO at 1/50
  ABSORBANCE (OD): 0.055
[2]; serum NJEM at 1/100
  ABSORBANCE (OD): 0.159
[2]; serum WANG at 1/50
  ABSORBANCE (OD): 0.025
